The source made the active and inactive calls. No cut-off for these calls is given here.
Assays:
[1] = system: Human alphaherpesvirus 2; experiment: Antiviral activity against Human herpesvirus 2; format: functional, organism-based
[2] = system: Influenza A virus; experiment: Antiviral activity against Influenza A virus A2/Taiwan; format: functional, organism-based

NC1C2C3CC4C5CC(C42)C1(c1ccccc1)C53 (racemic)
Activity [1]: Active
Activity [2]: Active
